Laboratory results published in patent publication US20050181474A1, “Transport peptides and uses therefor” (priority 2002, published 2005).

Columns and labels:
skin = assay: Homing of peptide after intravenous delivery in vivo; parameters: species or system mouse
Procedure: (§1) Another method used was to perfuse murine hearts ex-vivo on a Langendorf apparatus, administer the phage through the coronary circulation, and then rescue the phage that entered the myocardium. In vivo experiments were also done in which phage was injected into the general circulation of a mouse, any phage binding to the vasculature was removed by treatment with an enzyme solution, and then phage that had entered tissue parenchyma were rescued and enriched.

[1] = test system: heart, skeletal muscle, skin, brain; assay: In vivo translocation of peptide-displaying phage into tissue parenchyma; parameters: species or system mouse
Procedure: as §1

[2] = test system: endothelial cells (HUVEC cells); assay: Internalization of rhodamine-labeled peptide into endothelial cells; type: cell-based, human; conditions: FIG. 3A
Text: (§2) To test the properties of the peptides defined, small scale synthesis of these peptides was ordered, labeled with rhodamine for fluorescent localization, from the Keck facility at Yale University. They were then used in in vitro and in vivo experiments to investigate the ability of these peptides to enter cells and tissues.
(§3) FIGS. 3A and 3B show pictures depicting highly efficient internalization of these peptides into cells in culture. One such transport peptide is RRGRRRGR.

[3] = test system: rat aortic and adult human smooth muscle cells; assay: Internalization of rhodamine-labeled peptide into smooth muscle cells; type: cell-based; conditions: FIG. 3B
Text: as §2, §3

[4] = test system: parenchyma of the heart (myocardium); assay: Uptake of rhodamine-labeled peptide into heart after coronary infusion; type: in vivo, mouse; conditions: single pass infusion through the coronary circulation, FIGS. 4A-C
Text: In experiments designed to test the ability of these peptides to cross the endothelium and enter cells in vivo, synthetic transport peptides labeled with the fluorescent marker rhodamine were infused into the coronary circulation of mice. […] Peptides selected for internalization were capable of internalizing into the myocardium efficiently.
One such transport peptide is RRGRRRGR.

GSRHPPL (Transport peptide)
homing (tissue targeting) (skin): appears to significantly target skin

LLAVPAA (Transport peptide)
crossing the blood brain barrier and entry into the brain [1]: appears capable of crossing the blood brain barrier and entry into the brain | translocating phage into tissues ([1]; phage displaying the peptide, heart, skeletal muscle, skin): capable of translocating phage into heart, skeletal muscle, skin

RRGRRRGR (Transport peptide)
uptake (internalization) into endothelial cells [2]: efficient uptake | uptake (internalization) into smooth muscle cells [3]: efficient uptake | uptake into the parenchyma of the heart [4]: efficient uptake
